According to patent US20210038559A1, “CANNABINOIDS AND DERIVATIVES FOR PROMOTING IMMUNOGENICITY OF TUMOR AND INFECTED CELLS” (priority 2018, published 2021):

System: MHC-I expression by COLO 205 cells
Test: cells
Format: cell-based, human
Conditions: not given
Procedure: A panel of synthetic cannabinoids (Cayman Chemical, #9002891) was tested for MHC class I-inducing capability in COLO 205 cells as described above. COLO 205 cells were treated with the compounds at a concentration of 35 μM and evaluated for cell surface MHC class I expression after 48 hours. Cells were harvested, stained with MHC-I mAb W6/32 (Thermo Fisher). MHC-I expression was determined by flow cytometry.

In order of falling “Induction Fold” value:
1. CCCCCCn1cccc1C(=O)c1cccc2ccccc12 [Example 202, (1-hexyl-1H-pyrrol-2-yl)-1-naphthalenyl-methanone]  1.87 Fold
2. CCC(F)CCn1nc(C(=O)N[C@H](C(=O)OC)C(C)C)c2ccccc21 (stereo partly drawn) [Example 210, methyl (1-(3-fluoropentyl)-1H-indazole-3-carbonyl)-1-valinate]  1.84 Fold
3. CCCCCn1cc(C(=O)c2cc(C)cc3ccccc23)c2ccccc21 [Example 219, (3-methylnaphthalen-1-y1)(1-pentyl-1H-indol-3-yl)methanone]  1.78 Fold

Same assay, conditions: Homo sapiens, COLO 205, 48 h, MHC-I expression, COLO 205 cells, compounds at 35 μM, 48 hours, flow cytometry (W6/32); read-out: Induction Fold

In order of rising fold induction at 35 µM:
1. NC(=O)[C@H](Cc1ccccc1)NC(=O)c1nn(CCCCCF)c2ccccc12 [Example 227, (S)-N-(1-amino-1-oxo-3-phenylpropan-2-yl)-1-(5-fluoropentyl)-1H-indazole-3-carboxamide]  1.72
2. CC(C)(NC(=O)c1nn(CCCCCF)c2ccccc12)c1ccccc1 [Example 228, 1-(5-fluoropentyl)-N-(1-methyl-1-phenylethyl)-1H-indazole-3-carboxamide]  1.72
3. O=C(c1nn(CCCCCF)c2ccccc12)N1CCCC1 [Example 230, (1-(5-fluoropentyl)-1H-indazol-3-yl)(pyrrolidin-1-yl)methanone]  1.72
4. CCCCCn1cc(C(=O)c2cccc3ccc(CC)cc23)c2ccccc21 [Example 231, (7-ethyl-1-naphthalenyl)(1-pentyl-1H-indol-3-yl)-methanone]  1.72
5. O=C(Nc1cccc(-c2ccccc2)c1)OC1CCCCC1 [Example 226, N-[1,1′-biphenyl]-3-yl-carbamic acid, cyclohexyl ester]  1.74
6. CCCCCn1nc(C(=O)Nc2cccc3ccccc23)c2ccccc21 [Example 224, N-1-naphthalenyl-1-pentyl-1H-indazole-3-carboxamide]  1.75
7. CC(C)CCCCn1cc(C(=O)C2C(C)(C)C2(C)C)c2ccccc21 [Example 225, (1-(5-methylhexyl)-1H-indol-3-yl)(2,2,3,3-tetramethylcyclopropyl)methanone]  1.75
8. CC1(C)C(C(=O)c2cn(CCCCCBr)c3ccccc23)C1(C)C [Example 222, [1-(5-bromopentyl)-1H-indol-3-yl](2,2,3,3-tetramethylcyclopropyl)-methanone]  1.76
9. CCCCCn1cc(C(=O)c2ccc(Cl)c3ccccc23)c2ccccc21 [Example 223, (4-chloro-1-naphthalenyl)(1-pentyl-1H-indol-3-yl)-methanone]  1.76
10. O=C(c1cccc2ccccc12)c1cn(Cc2ccc(F)cc2)c2ccccc12 [Example 220, (1-(4-fluorobenzyl)-1H-indol-3-yl)(naphthalen-1-yl)methanone]  1.77
11. CC(C)[C@H](NC(=O)c1nn(Cc2cccc(F)c2)c2ccccc12)C(N)=O [Example 221, N-[(1S)-1-(aminocarbonyl)-2-methylpropyl]-1-[(3-fluorophenyl)methyl]-1H-indazole-3-carboxamide]  1.77
12. O=C(Oc1ccc2cnccc2c1)c1cn(CCCCCF)c2ccccc12 [Example 218, isoquinolin-6-yl 1-(5-fluoropentyl)-1H-indole-3-carboxylate]  1.78
13. CCc1ccc(C(=O)c2cn(CCCCCF)c3ccccc23)c2ccccc12 [Example 216, (4-ethyl-1-naphthalenyl)[1-(5-fluoropentyl)-1H-indol-3-yl]-methanone]  1.79
14. CC(C)(C)C(NC(=O)c1nn(Cc2ccccc2)c2ccccc12)C(N)=O (stereo not drawn) [Example 217, N-(1-amino-3,3-dimethyl-1-oxobutan-2-yl)-1-benzyl-1H-indazole-3-carboxamide]  1.79
15. O=C(c1cn(CCCCCF)c2ccccc12)N1CCCC1 [Example 215, (1-(5-fluoropentyl)-1H-indol-3-yl)(pyrrolidin-1-yl)methanone]  1.8
16. NC(=O)[C@H](Cc1ccccc1)NC(=O)c1nn(Cc2ccc(F)cc2)c2ccccc12 [Example 213, N-[(1S)-2-amino-2-oxo-1-(phenylmethyl)ethyl]-1-[(4-fluorophenyl)methyl]-1H-indazole-3-carboxamide]  1.81
17. CCCCCn1cc(C(=O)c2ccc(C)c3ccccc23)c2ccccc21 [Example 211, (4-methyl-1-naphthalenyl)(1-pentyl-1H-indol-3-yl)-methanone]  1.83
18. O=C(Nc1cccc2cccnc12)c1cn(CCCCCF)c2ccccc12 [Example 208, 1-(5-fluoropentyl)-N-(quinolin-8-yl)-1H-indole-3-carboxamide]  1.84
19. CCCCC(F)Cn1cc(C(=O)c2cccc3ccccc23)c2ccccc21 (stereo not drawn) [Example 207, (1-(2-fluorohexyl)-1H-indol-3-yl)(naphthalen-1-yl)methanone]  1.85
20. CCCCCn1cc(C(=O)c2ccc(Br)c3ccccc23)c2ccccc21 [Example 205, (4-bromo-1-naphthalenyl)(1-pentyl-1H-indol-3-yl)-methanone]  1.86
21. O=C(Oc1cccc2ncccc12)c1cn(CC2CCCCC2)c2ccccc12 [Example 206, quinolin-5-yl 1-(cyclohexylmethyl)-1H-indole-3-carboxylate]  1.86
22. CCC(CC)n1cc(C(=O)c2ccc3ccccc3c2)c2ccccc21 [Example 201, [1-(1-ethylpropyl)-1H-indol-3-yl]-2-naphthalenyl-methanone]  1.87
23. Cc1ccc(C(=O)c2cn(CCN3CCOCC3)c3ccccc23)c2ccccc12 [Example 203, (4-methyl-1-naphthalenyl)[1-[2-(4-morpholinyl)ethyl]-1H-indol-3-yl]-methanone]  1.87
24. O=C(Oc1cccc2cccnc12)c1cn(Cc2ccc(F)cc2)c2ccccc12 [Example 204, 1-[(4-fluorophenyl)methyl]-1H-indole-3-carboxylic acid, 8-quinolinyl ester]  1.87
25. CCCCCc1cc(OC)c2cc(Cc3ccccc3OC)c(=O)oc2c1 [Example 200, 5-methoxy-3-[(2-methoxyphenyl)methyl]-7-pentyl-2H-1-benzopyran-2-one]  1.88
26. Cc1ccc(C(=O)c2cn(CCCCCCl)c3ccccc23)c2ccccc12 [Example 189, (1-(5-chloropentyl)-1H-indol-3-yl)(4-methylnaphthalen-1-yl)methanone]  1.89
27. CCCCCn1cc(C(=O)Cc2ccccc2Cl)c2ccccc21 [Example 190, 2-(2-chlorophenyl)-1-(1-pentyl-1H-indol-3-yl)-ethanone]  1.89
28. CCCCCn1cc(C(=O)c2cccc3c(C)cccc23)c2ccccc21 [Example 191, (5-methylnaphthalen-1-yl)(1-pentyl-1H-indol-3-yl)methanone]  1.89

Same assay, conditions: MHC-I expression, COLO 205 cells, compounds at 35 μM, 48 hours, flow cytometry (W6/32)

In order of rising “Induction Fold” value:
1. COC(=O)[C@@H](NC(=O)c1cn(CC2CCCCC2)c2ccccc12)C(C)C [Example 229, methyl (1-(cyclohexylmethyl)-1H-indole-3-carbonyl)-1-valinate]  1.72 Fold
2. CCCC(C)(C)c1ccc2c(c1)OC(C)(C)[C@@H]1CC=C(C)C[C@@H]21 [Example 188, 3-(1,1-dimethylbutyl)-6aR,7,10,10aR-tetrahydro-6,6,9-trimethyl-6H-dibenzo[b,d]pyran]  1.90 Fold
